This note sets out measurements from patent US12473304B2, “Heterocyclic PAD4 inhibitors” (BRISTOL-MYERS SQUIBB COMPANY, priority 2020, dated 2025).

Chain of human PAD4 (hPAD4) (Q9UM07 whole entry): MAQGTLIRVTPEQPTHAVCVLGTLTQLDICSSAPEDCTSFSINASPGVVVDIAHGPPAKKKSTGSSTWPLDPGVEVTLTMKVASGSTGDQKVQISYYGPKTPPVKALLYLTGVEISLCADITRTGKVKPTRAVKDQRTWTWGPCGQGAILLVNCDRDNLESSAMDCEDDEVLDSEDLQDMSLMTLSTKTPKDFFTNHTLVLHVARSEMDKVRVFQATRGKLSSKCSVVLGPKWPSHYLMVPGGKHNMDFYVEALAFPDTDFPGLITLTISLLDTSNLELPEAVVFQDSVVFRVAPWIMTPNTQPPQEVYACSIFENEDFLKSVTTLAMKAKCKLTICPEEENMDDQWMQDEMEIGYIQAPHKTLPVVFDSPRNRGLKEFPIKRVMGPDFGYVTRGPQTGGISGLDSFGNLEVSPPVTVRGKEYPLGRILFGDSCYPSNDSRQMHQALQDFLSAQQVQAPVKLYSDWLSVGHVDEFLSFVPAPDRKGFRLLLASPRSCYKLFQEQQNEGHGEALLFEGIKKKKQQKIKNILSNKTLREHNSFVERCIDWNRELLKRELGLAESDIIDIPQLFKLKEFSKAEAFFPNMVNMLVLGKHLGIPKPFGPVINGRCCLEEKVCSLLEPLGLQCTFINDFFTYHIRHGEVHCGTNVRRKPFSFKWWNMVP

The experiment has as its target human PAD4 (hPAD4) (Homo sapiens (Human), UniProt Q9UM07). The experiment in a line: RFMS Human PAD4 Functional Assay 1. The experiment is classed as biochemical. As to conditions: RFMS assay 1; 5 nM hPAD4, 250 μM BAEE substrate, 50 μM calcium, 37° C. Summed up:
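Recombinant hPAD4 (5 nM) was preincubated with compound (top 50 μM, 0.5% DMSO) for 30 min at 37 °C, then reacted with 250 μM BAEE for 90 min at 37 °C in pH 7.5 HEPES buffer with 50 μM calcium and 5 μM TPEN. Product was derivatized with phenyl glyoxal and quantified by RapidFire MS.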
On to `Cc1c(-c2cc3ccc(-c4ccc5[nH]ncc5c4)nc3n2CC2CC2)nn2cc(C(=O)N3CCC[C@@H](N)C3)ccc12` [Example 309, (3R)-1-{2-[1-(Cyclopropylmethyl)-6-(1H-indazol-5-yl)-1H-pyrrolo[2,3-b]pyridin-2-yl]-3-methylpyrazolo[1,5-a]pyridine-6-carbonyl}piperidin-3-amine], for which the IC50 came out at 400 nM.

Turning to `Cc1c(-c2cc3ccc(-c4ccc5cn[nH]c5c4)nc3n2CC2CC2)nn2cc(C(=O)N3CCC[C@@H](N)C3)ccc12` [Example 310, (3R)-1-{2-[1-(Cyclopropylmethyl)-6-(1H-indazol-6-yl)-1H-pyrrolo[2,3-b]pyridin-2-yl]-3-methylpyrazolo[1,5-a]pyridine-6-carbonyl}piperidin-3-amine], the IC50 was determined as 400 nM.

In the case of `Cc1c(-c2cc3ccc(-c4cccc5[nH]ncc45)nc3n2CC2CC2)nn2cc(C(=O)N3CCC[C@@H](N)C3)ccc12` [Example 311, (3R)-1-{2-[1-(Cyclopropylmethyl)-6-(1H-indazol-4-yl)-1H-pyrrolo[2,3-b]pyridin-2-yl]-3-methylpyrazolo[1,5-a]pyridine-6-carbonyl}piperidin-3-amine], the IC50 worked out at 210 nM.

Take `Cc1c(-c2ccc3cc(-c4nn5cc(C(=O)N6CCC[C@@H](N)C6)ccc5c4C)n(CC4CC4)c3n2)cc(F)c2[nH]c(=O)ccc12` [Example 312, 6-(2-{6-[(3R)-3-Aminopiperidine-1-carbonyl]-3-methylpyrazolo[1,5-a]pyridin-2-yl}-1-(cyclopropylmethyl)-1H-pyrrolo[2,3-b]pyridin-6-yl)-8-fluoro-5-methyl-1,2-dihydroquinolin-2-one]: the IC50 was found to be 60 nM.

For the compound `Cc1c(-c2cc3ccc(-c4cccc(O)c4Cl)nc3n2CC2CC2)nn2cc(C(=O)N3CCC[C@@H](N)C3)ccc12` [Example 313, 3-(2-{6-[(3R)-3-Aminopiperidine-1-carbonyl]-3-methylpyrazolo[1,5-a]pyridin-2-yl}-1-(cyclopropylmethyl)-1H-pyrrolo[2,3-b]pyridin-6-yl)-2-chlorophenol], the 50% inhibitory concentration (IC50) turned out to be 100 nM.

For `Cc1c(-c2cc3ccc(-c4cccc(O)c4F)nc3n2CC2CC2)nn2cc(C(=O)N3CCC[C@@H](N)C3)ccc12` [Example 314, 3-(2-{6-[(3R)-3-Aminopiperidine-1-carbonyl]-3-methylpyrazolo[1,5-a]pyridin-2-yl}-1-(cyclopropylmethyl)-1H-pyrrolo[2,3-b]pyridin-6-yl)-2-fluorophenol], the half-maximal inhibitory concentration (IC50) is 40 nM.

With `Cc1c(-c2cc3ccc(-c4ccc5c(c4)C(=O)NC5)nc3n2CC2CC2)nn2cc(C(=O)N3CCC[C@@H](N)C3)ccc12` [Example 315], the IC50 came out at 340 nM.

With `Cc1cc(-c2ccc3cc(-c4nn5cc(C(=O)N6CCC[C@@H](N)C6)ccc5c4C)n(CC4CC4)c3n2)ccc1C(N)=O` [Example 316, 4-(2-{6-[(3R)-3-Aminopiperidine-1-carbonyl]-3-methylpyrazolo[1,5-a]pyridin-2-yl}-1-(cyclopropylmethyl)-1H-pyrrolo[2,3-b]pyridin-6-yl)-2-methylbenzamide], the concentration for half-maximal inhibition (IC50) was 250 nM.

As for `Cc1c(-c2cc3ccc(-c4ccc5c(c4)CNC5=O)nc3n2CC2CC2)nn2cc(C(=O)N3CCC[C@@H](N)C3)ccc12` [Example 317, 5-(2-{6-[(3R)-3-Aminopiperidine-1-carbonyl]-3-methylpyrazolo[1,5-a]pyridin-2-yl}-1-(cyclopropylmethyl)-1H-pyrrolo[2,3-b]pyridin-6-yl)-2,3-dihydro-1H-isoindol-1-one], the concentration for half-maximal inhibition (IC50) amounted to 510 nM.

Take `Cc1c(-c2cc3ccc(N4CCOCC4)nc3n2CC2CC2)nn2cc(C(=O)N3CC4CCC3[C@@H]4N)ccc12` (stereo partly drawn) [Example 318, (7R)-2-{2-[1-(Cyclopropylmethyl)-6-(morpholin-4-yl)-1H-pyrrolo[2,3-b]pyridin-2-yl]-3-methylpyrazolo[1,5-a]pyridine-6-carbonyl}-2-azabicyclo[2.2.1]heptan-7-amine]: the half-maximal inhibitory concentration (IC50) worked out at 310 nM.

As to `Cc1c(-c2cc3ccc(N4CCOCC4=O)nc3n2CC2CC2)nn2cc(C(=O)N3CC4CCC3[C@@H]4N)ccc12` (stereo partly drawn) [Example 319, 4-(2-{6-[(7R)-7-Amino-2-azabicyclo[2.2.1]heptane-2-carbonyl]-3-methylpyrazolo[1,5-a]pyridin-2-yl}-1-(cyclopropylmethyl)-1H-pyrrolo[2,3-b]pyridin-6-yl)morpholin-3-one], the IC50 amounted to 50 nM.

With `Cc1c(-c2cc3ccc(N4CCC(S(C)(=O)=O)CC4)nc3n2CC2CC2)nn2cc(C(=O)N3CC4CCC3[C@@H]4N)ccc12` (stereo partly drawn) [Example 320, (7R)-2-{2-[1-(Cyclopropylmethyl)-6-(4-methanesulfonylpiperidin-1-yl)-1H-pyrrolo[2,3-b]pyridin-2-yl]-3-methylpyrazolo[1,5-a]pyridine-6-carbonyl}-2-azabicyclo[2.2.1]heptan-7-amine], the 50% inhibitory concentration (IC50) is 150 nM.

As for `Cc1c(-c2cc3ccc(-c4ccc5cn[nH]c5c4)nc3n2CC2CC2)nn2cc(C(=O)N3C[C@H](N)C[C@@H](F)C3)ccc12` [Example 321, (3R,5R)-1-{2-[1-(Cyclopropylmethyl)-6-(1H-indazol-6-yl)-1H-pyrrolo[2,3-b]pyridin-2-yl]-3-methylpyrazolo[1,5-a]pyridine-6-carbonyl}-5-fluoropiperidin-3-amine], the concentration for half-maximal inhibition (IC50) was 15000 nM.

`Cc1c(-c2cc3ccc(-c4cccc5[nH]ncc45)nc3n2CC2CC2)nn2cc(C(=O)N3C[C@H](N)C[C@@H](F)C3)ccc12` [Example 322, (3R,5R)-1-{2-[1-(Cyclopropylmethyl)-6-(1H-indazol-4-yl)-1H-pyrrolo[2,3-b]pyridin-2-yl]-3-methylpyrazolo[1,5-a]pyridine-6-carbonyl}-5-fluoropiperidin-3-amine]: the IC50 was 500 nM.

Take `Cc1c(-c2cc3ccc(-c4ccc5[nH]ncc5c4)nc3n2CC2CC2)nn2cc(C(=O)N3C[C@H](N)C[C@@H](F)C3)ccc12` [Example 323, (3R,5R)-1-{2-[1-(Cyclopropylmethyl)-6-(1H-indazol-5-yl)-1H-pyrrolo[2,3-b]pyridin-2-yl]-3-methylpyrazolo[1,5-a]pyridine-6-carbonyl}-5-fluoropiperidin-3-amine]: the IC50 amounted to 140 nM.

For `Cc1c(-c2ccc3cc(-c4nn5cc(C(=O)N6C[C@H](N)C[C@@H](F)C6)ccc5c4C)n(CC4CC4)c3n2)cc(F)c2[nH]c(=O)ccc12` [Example 324, 6-(2-{6-[(3R,5R)-3-Amino-5-fluoropiperidine-1-carbonyl]-3-methylpyrazolo[1,5-a]pyridin-2-yl}-1-(cyclopropylmethyl)-1H-pyrrolo[2,3-b]pyridin-6-yl)-8-fluoro-5-methyl-1,2-dihydroquinolin-2-one], the 50% inhibitory concentration (IC50) is 110 nM.

On to `COC(=O)N(C)C1CCN(c2ccc3cc(-c4nn5cc(C(=O)N6C[C@H](N)C[C@@H](F)C6)ccc5c4C)n(CC4CC4)c3n2)CC1` [Example 325, Methyl N-[1-(2-{6-[(3R,5R)-3-amino-5-fluoropiperidine-1-carbonyl]-3-methylpyrazolo[1,5-a]pyridin-2-yl}-1-(cyclopropylmethyl)-1H-pyrrolo[2,3-b]pyridin-6-yl)piperidin-4-yl]-N-methylcarbamate], for which the half-inhibitory concentration (IC50) turned out to be 1540 nM.

For `Cc1c(-c2cc3ccc(-c4ccc(F)c5[nH]ncc45)cc3n2CC2CC2)nn2cc(C(=O)N3CC4CCC3[C@@H]4N)ccc12` (stereo partly drawn) [Example 326, (7R)-2-{2-[1-(Cyclopropylmethyl)-6-(7-fluoro-1H-indazol-4-yl)-1H-indol-2-yl]-3-methylpyrazolo[1,5-a]pyridine-6-carbonyl}-2-azabicyclo[2.2.1]heptan-7-amine], the IC50 turned out to be 200 nM.

On to `Cc1c(-c2cc3ccc(-c4cccc5[nH]nc(F)c45)cc3n2CC2CC2)nn2cc(C(=O)N3CC4CCC3[C@@H]4N)ccc12` (stereo partly drawn) [Example 327, (7R)-2-{2-[1-(Cyclopropylmethyl)-6-(3-fluoro-1H-indazol-4-yl)-1H-indol-2-yl]-3-methylpyrazolo[1,5-a]pyridine-6-carbonyl}-2-azabicyclo[2.2.1]heptan-7-amine], for which the IC50 was determined as 70 nM.

Turning to `Cc1c(-c2cc3ccc(-c4ccc(N5CCNC5=O)cc4)cc3n2CC2CC2)nn2cc(C(=O)N3CC4CCC3[C@@H]4N)ccc12` (stereo partly drawn) [Example 328, 1-[4-(2-{6-[(7R)-7-Amino-2-azabicyclo[2.2.1]heptane-2-carbonyl]-3-methylpyrazolo[1,5-a]pyridin-2-yl}-1-(cyclopropylmethyl)-1H-indol-6-yl)phenyl]imidazolidin-2-one], the IC50 turned out to be 120 nM.

In the case of `Cc1c(-c2cc3ccc(-c4ccc(N5CCCC5=O)cc4)cc3n2CC2CC2)nn2cc(C(=O)N3CC4CCC3[C@@H]4N)ccc12` (stereo partly drawn) [Example 329, 1-[4-(2-{6-[(7R)-7-Amino-2-azabicyclo[2.2.1]heptane-2-carbonyl]-3-methylpyrazolo[1,5-a]pyridin-2-yl}-1-(cyclopropylmethyl)-1H-indol-6-yl)phenyl]pyrrolidin-2-one], the half-maximal inhibitory concentration (IC50) worked out at 50 nM.

`Cc1c(-c2cc3ccc(-c4ccc5cn[nH]c5c4F)cc3n2CC2CC2)nn2cc(C(=O)N3CC4CCC3[C@@H]4N)ccc12` (stereo partly drawn) [Example 330, (7R)-2-{2-[1-(Cyclopropylmethyl)-6-(7-fluoro-1H-indazol-6-yl)-1H-indol-2-yl]-3-methylpyrazolo[1,5-a]pyridine-6-carbonyl}-2-azabicyclo[2.2.1]heptan-7-amine]: the concentration for half-maximal inhibition (IC50) was 150 nM.

With `Cc1cc(-c2ccc3cc(-c4nn5cc(C(=O)N6CC7CCC6[C@@H]7N)ccc5c4C)n(CC4CC4)c3c2)c(F)cc1C(N)=O` (stereo partly drawn) [Example 331, 4-(2-{6-[(7R)-7-Amino-2-azabicyclo[2.2.1]heptane-2-carbonyl]-3-methylpyrazolo[1,5-a]pyridin-2-yl}-1-(cyclopropylmethyl)-1H-indol-6-yl)-5-fluoro-2-methylbenzamide], the 50% inhibitory concentration (IC50) stood at 60 nM.

With `Cc1c(-c2cc3ccc(-c4ccc5cn[nH]c5c4)cc3n2CC2CC2)nn2cc(C(=O)N3CC4CCC3[C@@H]4N)ccc12` (stereo partly drawn) [Example 332, (7R)-2-{2-[1-(Cyclopropylmethyl)-6-(1H-indazol-6-yl)-1H-indol-2-yl]-3-methylpyrazolo[1,5-a]pyridine-6-carbonyl}-2-azabicyclo[2.2.1]heptan-7-amine], the IC50 was 20 nM.
